# Entries after “also recorded” stand apart in the source; their conditions may differ. Residues, ends and D or L forms follow the SMILES beside them.
# Test system: RAW264.7 macrophages
# Experiment: Intracellular uptake of FITC-rmCIRP by macrophages (flow cytometry, confocal microscopy)
# Assay type: cell-based, mouse
# Details: for intracellular FITC-rmCIRP uptake (flow cytometry): RAW264.7, FITC-rmCIRP 1 μg/mL co-incubated with test substance (peptide 10 μg/mL), 1 hour, vs FITC-rmCIRP alone
# Method: FIG. 3. Effects of MOP peptides MOP-3, MOP-8 and MOP-14 on eCIRP. Flow cytometry experiment whereby RAW264.7 macrophages were treated for 1 hour according to respective group: PBS (volume-equivalent), FITC-rmCIRP (1 μg/mL), or a mixture of FITC-rmCIRP (1 μg/mL) with each respective peptide (10 μg/mL) after co-incubating for 30 minutes. Intracellular FITC-rmCIRP was analyzed by flow cytometry. Median fluorescence intensity (MFI) reported as percentage relative to PBS-treated RAW264.7 cells. Data from two independent experiments are expressed as mean±SEM and compared by one-way ANOVA and SNK test. *p<0.05 vs. PBS, #p<0.05 vs. eCIRP.
# Computational modeling was used to determine the likely domain of MFG-E8's binding to eCIRP. The known amino acid (AA) sequence of this domain was used to develop and test potential therapeutic peptides. An MFG-E8 derived oligopeptide, MOP3, was developed based on 15 AA from MFG-E8 discoidin 2 domain (mimicking MFG-E8's C-terminal) and tagged with the 3 AA, RGD, (mimicking MFG-E8's binding capacity for the integrin receptor at the N-terminal). Binding of MOP3 to CIRP was quantified using Surface Plasmon Resonance (SPR) analysis. Macrophages (RAW264.7 cells) were treated with FITC-recombinant mouse (rm)-CIRP or co-incubated MOP3 and FITC-rmCIRP with and without a. Br-integrin Ab. After 1 h, cells were fixed and analyzed for intracellular FITC-rmCIRP by flow cytometry. Macrophages were stimulated with rmCIRP or co-incubated mixture of MOP3 and rmCIRP. After 4 h, cell culture supernatants were analyzed for inflammatory cytokine, TNFα.
# Mouse macrophage cell line, RAW264.7 cells were obtained from American Type Culture Collection (ATCC) and cultured in DMEM media with 10% FBS, 1% penicillin and streptomycin, and 1% glutamine. Cells were kept in 37° C. incubator under humidified conditions containing 5% CO2.
# rmCIRP was labeled using a FITC Conjugation Kit (Abcam, ab188285), and rmMFG-E8 was labeled using Alexa Fluor Conjugation Kit (Abcam, ab269821), both according to respective manufacturer's instructions.
# In order to visualize cellular uptake, we initially utilized TRITC-BSA as an internal probe, as BSA is taken up into cells primarily by endocytosis and retained intracellularly after fixation (27, 28). For further visualization of intracellular localization, we utilized LAMP1 primary antibody (as it is distributed among endolysosomal organelles and serves as a marker for lysosomal compartments) (29), and utilized lysotracker in live cell experiments (as it allows for imaging of dynamics of lysosome vesicle movements) (30). RAW264.7 cells were treated in various conditions with rmCIRP, rmMFG-E8, and inhibitory antibody against auß3-integrin (Bioss antibodies, bs-1310R) for 4 hours. Cells were fixed with 4% paraformaldehyde (PFA), washed with 1×PBS, permeabilized using 0.3% Triton x100, and blocked using 5% BSA 100 mM Glycine in PBS prior to primary antibody treatment. After incubation with secondary antibodies, cells were washed and mounted with ProLong Gold antifade reagent (Invitrogen). For live cell imaging, cells remained in treatment conditions and were imaged under CO2. Staining procedures were performed according to the manufacturers' instructions utilizing respective fluorescent dyes and probes. For all imaging, confocal microscopy images were obtained using a Zeiss LSM880 confocal microscope equipped with a 63× objective. Images were quantified and analyzed using Image J, FIJI.(31) Flow cytometry.
# To detect changes in internalized eCIRP in the presence of MFG-E8, RAW264.7 cells were seeded in 12-well plates (approximately 3×10^5 cells/well) and were treated with FITC-eCIRP. Treatment groups consisted of FITC-eCIRP, FITC-eCIRP with MFG-E8, FITC-eCIRP with MFG-E8 and αvβ3-integrin antibody (0.5 μg/mL), or FITC-eCIRP with MFG-E8 and IgG isotype (0.5 μg/mL). Similar experiments were conducted with MOP3 instead of MFG-E8 in parallel groups. […]
structure (smiles),measurement,setting,value
"CC(C)C[C@H](NC(=O)[C@H](CC(N)=O)NC(=O)[C@H](Cc1c[nH]c2ccccc12)NC(=O)[C@@H](NC(=O)[C@H](CCCCN)NC(=O)[C@H](Cc1ccc(O)cc1)NC(=O)[C@H](CO)NC(=O)[C@H](CO)NC(=O)[C@H](CO)NC(=O)[C@H](CC(=O)O)NC(=O)CNC(=O)[C@@H](N)CCCNC(=N)N)[C@@H](C)O)C(=O)N[C@@H](CCCNC(=N)N)C(=O)N[C@@H](C)C(=O)N[C@@H](Cc1ccccc1)C(=O)NCC(=O)N[C@@H](Cc1c[nH]c2ccccc12)C(=O)N[C@@H](Cc1ccc(O)cc1)C(=O)O [MOP3, RGDSSSYKTWNLRAFGWY] (H-RGDSSSYKTWNLRAFGWY-OH; N-terminus and C-terminus assumed)",intracellular FITC-rmCIRP uptake (flow cytometry),,increased intracellular fluorescence; also recorded: significantly increased intracellular rmCIRP uptake
same,intracellular FITC-rmCIRP uptake (flow cytometry),listed as peptide-3,could increase intracellular uptake of FITC-eCIRP
same,intracellular FITC-rmCIRP uptake with αvβ3-integrin blocking antibody (flow cytometry),"RAW264.7, αvβ3-integrin antibody 0.5 μg/mL",prevented

# Source: patent US20240197828A1, “Chimeric molecule to treat sepsis and other inflammatory conditions” (THE FEINSTEIN INSTITUTES FOR MEDICAL RESEARCH, priority 2022, published 2024)
